Assay results from PMC7291367, “Insightful Backbone Modifications Preventing Proteolytic Degradation of Neurotensin Analogs Improve NTS1-Induced Protective Hypothermia” (Frontiers in Chemistry, 2020).
Entries after “also recorded” stand apart in the source; their conditions may differ. Like-named read-outs stand apart in the source and are kept apart here. Numbered stars: 1 amine (or outer) side, 2 acyl side, 3 side chain; on linkers, the order of the positions; unused ones are H or OH. Square brackets hold non-standard residues; d marks the D form. Peptide text beside a SMILES is read from it. X1 = NCCCC[C@H](N)CN([C@@H](CCCCN)C(=O)[*:2])[*:1]; Ala(SiMe3) = C[Si](C)(C)C[C@H](N)C(=O)O; X2 = C[Si]1(C)CC(C(=O)[*:2])N([*:1])C1

Assays:
[1] = Plasma stability assay (UPLC/MS); type: in vitro ADME; details: 37°C; for half-life at 0.156 mM: rat; for Plasma stability (Half-life): rat plasma, 0.156 mM
Procedure: Rat plasma was obtained from blood by keeping the translucent phase after centrifugation at 15,000 g over 5 min. Plasma stability assay was carried out by incubating each compound at different incubation times in rat plasma at a final concentration of 0.156 mM. […] Then, 70 μl of a solution containing 10% trichloroacetic acid (TCA) and 0.5% nicotinamine, an internal standard, was added to stop the degradation by proteases. After centrifugation at 15,000 g for 30 min, supernatant was filtered through 0.22-μm filter and analyzed by UPLC/MS (Water H Class Acquity UPLC, mounted with Acquity UPLC BEH C18 column, 1.7 μm, 2.1 × 50 mm and paired to a SQ Detector 2). Compounds 1, 2, and 5 were analyzed using the mass or UV spectrum. Quantification was done by determining the area under the curve (AUC) ratio of each compound over AUC of nicotinamine for each incubation time. Data were plotted into GraphPad Prism 8 and the half-life of each compound was calculated using one-phase decay fit and represented the mean ± SEM of minimum three separate experiments.

hNTS2 = hNTS2 (Homo sapiens, UniProt O95665); test: Competitive radioligand binding assay, 125I-[Tyr3]-NT displacement, 1321N1 cell membranes; details: for NTS1/NTS2 selectivity: ratio of Ki hNTS1 to Ki hNTS2; for fold decrease in NTS2 binding affinity: compared to NT(8-13)
hNTS2, sequence (O95665 whole entry): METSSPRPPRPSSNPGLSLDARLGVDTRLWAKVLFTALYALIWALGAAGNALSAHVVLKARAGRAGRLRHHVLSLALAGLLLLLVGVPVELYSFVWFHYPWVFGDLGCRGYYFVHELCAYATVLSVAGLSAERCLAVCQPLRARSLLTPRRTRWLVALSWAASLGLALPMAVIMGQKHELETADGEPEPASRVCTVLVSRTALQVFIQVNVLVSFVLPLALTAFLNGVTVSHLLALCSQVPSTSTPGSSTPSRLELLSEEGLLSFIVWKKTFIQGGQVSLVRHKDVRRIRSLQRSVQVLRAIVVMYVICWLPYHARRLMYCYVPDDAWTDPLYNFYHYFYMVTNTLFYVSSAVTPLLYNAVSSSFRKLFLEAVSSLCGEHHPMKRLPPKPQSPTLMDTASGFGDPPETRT
Procedure: (§1) All media and additives are from Wisent (St-Bruno, QC). […] After 1 h of incubation at room temperature, the binding reaction mixture was transferred in polyethylenimine-coated 96-well-filter plates (Millipore, Billerica, MA). Reaction was terminated by filtration, and plates were washed three times with 200 μl of ice-cold binding buffer. […] Data were plotted using GraphPad Prism 8 using the One-site—Fit log (IC50) and represent the mean ± SEM of at least three separate experiments performed in triplicate.

Sprague-Dawley rats = test: Body temperature measurement after intrathecal injection; type: in vivo; details: rat; for effect on body temperature / temperature drop: 30 μg/kg i.t.; for effect on body temperature: compared to the saline-treated group; for Hypothermia ΔTemp: 30 μg/kg, i.t., change in body temperature from baseline at 60 min; for temperature drop: for up to 60 min
From the text: The experimental procedures in this study were approved by the Animal Care Committee of the Université de Sherbrooke (protocol n°035-18B) and were in accordance with policies and directives of the Canadian Council on Animal Care. Adult male Sprague-Dawley rats, weighing 175–225 g (Charles River laboratories, St-Constant, Québec, Canada), were maintained on a 12-h light/dark cycle with free access to food and water and were housed two per cage on Aspen shavings in a quiet room.
Rats were lightly anesthetized with isoflurane/oxygen (Baxter corporation, Mississauga, ON, Canada; 2 L/min) flow and 25 μl of each compound were injected intrathecally with a 27-G 1/2 needle (BD PrecisionGlide, USA) into the subarachnoid space between vertebrae L5 and L6. Analogs 1–14 were diluted in physiological saline at 5 mg/ml, whereas compounds 15 and 16 were diluted in DMSO. For body temperature measurement, the injected solution of these both compounds contained 6% DMSO at final concentration (30 μg/kg).
Three consecutive days prior to testing, animals were individually acclimatized to manipulations and to a thermistor probe 5 min per day. The day of the test, experiments were always performed in a quiet room and between 8:00 and 12:00 PM. to reduce any variation related to the circadian rhythm. Body temperature was measured using a thermistor probe inserted into the rectum of adult Sprague-Dawley rats. Temperatures were recorded immediately before (baseline) and each 10 min for up to 60 min following intrathecal administration of saline, vehicle (6% DMSO) or NT analogs at 30 μg/kg. Changes in body temperature (Δ body temp) from baseline were determined for each animal. Data are expressed as mean ± SEM of 5 to 20 animals per condition.
Data are expressed as mean ± standard errors of the mean (SEM). All graphs and statistical analysis were performed using GraphPad Prism 8 (GraphPad software, La Jolla, CA, USA). A two-way ANOVA followed by Bonferroni's multiple comparisons test was used to determine significant differences between drug- and vehicle-treated rats at different timepoints post-injection.

hNTS1 = hNTS1 (Homo sapiens, UniProt P30989); test: Competitive radioligand binding assay, 125I-[Tyr3]-NT displacement, CHO-K1 cell membranes; details: for fold decrease in NTS1 binding affinity: compared to NT(8-13)
hNTS1, sequence (P30989 whole entry): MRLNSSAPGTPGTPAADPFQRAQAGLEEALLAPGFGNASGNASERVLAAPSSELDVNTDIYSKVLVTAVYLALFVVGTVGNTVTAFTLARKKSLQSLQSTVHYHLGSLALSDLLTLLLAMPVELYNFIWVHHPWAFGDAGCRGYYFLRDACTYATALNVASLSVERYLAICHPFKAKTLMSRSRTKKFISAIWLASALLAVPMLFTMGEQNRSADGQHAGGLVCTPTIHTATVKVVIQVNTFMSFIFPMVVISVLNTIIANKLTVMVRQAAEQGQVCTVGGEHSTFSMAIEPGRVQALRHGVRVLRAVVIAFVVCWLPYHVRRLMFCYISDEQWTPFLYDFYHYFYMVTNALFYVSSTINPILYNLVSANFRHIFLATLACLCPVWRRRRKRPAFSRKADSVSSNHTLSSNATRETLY
Procedure: as §1

[2] = mean ± SEM, at least three experiments, Cheng-Prusoff from IC50, read-out: Binding, Ki hNTS2

Row | Compound | half-life at 0.156 mM ([1]; plasma, incubation up to 24 h) [h] | Ki (hNTS2) [nM] | NTS1/NTS2 selectivity (hNTS2) | effect on body temperature (Sprague-Dawley rats) | Hypothermia ΔTemp (Sprague-Dawley rats) [°C] | Ki (hNTS1) [nM] | also measured
1 | CC[C@H](C)[C@H](NC(=O)[C@H](CCCCN)NC(=O)[C@@H]1CCCN1C(=O)[C@H](CCCCN)NC[C@@H](N)CCCCN)C(=O)N[C@@H](CC(C)C)C(=O)O [Compound 10, H-LysΨ[CH2NH]Lys-Pro-Lys-Ile-Leu-OH] (H-[X1]PKIL-OH) | 5 ± 0.2 | – | – | – | – | – | –
2 | CC[C@H](C)[C@H](NC(=O)[C@H](Cc1ccc(O)cc1)NC(=O)[C@@H]1CCCN1C(=O)[C@H](CCCNC(=N)N)NC(=O)[C@@H](N)CCCNC(=N)N)C(=O)N[C@@H](CC(C)C)C(=O)O [NT(8-13), H-Arg-Arg-Pro-Tyr-Ile-Leu-OH, reference compound] | – | – | – | – | – | – | half-life at 0.156 mM ([1]; short incubation times): 0.0167 ± 0.00167 h
3 | CC[C@H](C)[C@H](NC(=O)[C@H](Cc1ccc(O)cc1)NC(=O)[C@@H]1CCCN1C(=O)[C@H](CCCCN)NC[C@@H](N)CCCCN)C(=O)N[C@@H](C[Si](C)(C)C)C(=O)O [Compound 4, H-Lysψ[CH2NH]Lys-Pro-Tyr-Ile-TMSAla-OH] (H-[X1]PYI[Ala(SiMe3)]-OH) | 2 ± 0.2 | 0.55 ± 0.1 | 4.5 | long-lasting hypothermia | −2.0 ± 0.10 | 2.5 ± 0.2 | temperature drop (Sprague-Dawley rats): more than 2 °C; fold decrease (loss) of affinity at NTS1 (hNTS1; compared to 3): 140 fold
4 | CC[C@H](C)[C@H](NC(=O)[C@H](Cc1ccc(O)cc1)NC(=O)C1C[Si](C)(C)CN1C(=O)[C@H](CCCCN)NC(=O)[C@@H](N)CCCCN)C(=O)N[C@@H](C[Si](C)(C)C)C(=O)O (stereo partly drawn) [Compound 7, H-Lys-Lys-Sip-Tyr-Ile-TMSAla-OH] (H-KK[X2]YI[Ala(SiMe3)]-OH) | – | 16 ± 4 | 3.4 | not effective in reducing the body temperature; also recorded: not effective to induce drop in body temperature | −0.30 ± 0.6 | 55 ± 5 | fold decrease in NTS2 binding affinity (hNTS2): 6 fold; fold decrease in NTS1 binding affinity (hNTS1): 35 fold
5 | CC[C@H](C)[C@H](NC(=O)[C@H](Cc1ccc(O)cc1)NC(=O)C1C[Si](C)(C)CN1C(=O)[C@H](CCCCN)NC[C@@H](N)CCCCN)C(=O)N[C@@H](C[Si](C)(C)C)C(=O)O (stereo partly drawn) [Compound 8, H-LysΨ[CH2NH]Lys-Sip-Tyr-Ile-TMSAla-OH] | > 20 | – | – | – | – | – | –
6 | CC[C@H](C)[C@H](NC(=O)[C@H](Cc1ccc(O)cc1)NC(=O)[C@@H]1CCCN1C(=O)[C@H](CCCCN)NC(=O)[C@@H](N)CCCCN)C(=O)N[C@@H](CC(C)C)C(=O)O [Compound 1, H-Lys-Lys-Pro-Tyr-Ile-Leu-OH] | – | 1.1 ± 0.2 | – | not effective in reducing the body temperature; also recorded: not effective to induce drop in body temperature | 0.27 ±0.2 | – | half-life at 0.156 mM ([1]; short incubation times): 0.0267 ± 0.005 h
7 | CC[C@H](C)[C@H](NC(=O)[C@H](Cc1ccc(O)cc1)NC(=O)[C@@H]1CCCN1C(=O)[C@H](CCCCN)NC[C@@H](N)CCCCN)C(=O)N[C@@H](CC(C)C)C(=O)O [Compound 2, H-LysΨ[CH2NH]Lys-Pro-Tyr-Ile-Leu-OH] (H-[X1]PYIL-OH) | – | – | 6 | – | – | 2 ± 0.8 | Ki (hNTS2; [2]): 0.31 ± 0.08 nM; Plasma stability (Half-life) ([1]; short incubation times): 0.14 ± 0.0333 h; half-life at 0.156 mM ([1]; plasma, short incubation times): < 0.167 h
8 | CC[C@H](C)[C@H](NC(=O)[C@@H](Cc1c[nH]c2ccccc12)NC(=O)[C@@H]1CCCN1C(=O)[C@H](CCCCN)NC[C@@H](N)CCCCN)C(=O)N[C@@H](C[Si](C)(C)C)C(=O)O [Compound 14, H-Lysψ[CH2NH]Lys-Pro-D-Trp-Ile-TMSAla-OH] (H-[X1]P[dW]I[Ala(SiMe3)]-OH) | > 20 | 3.5 ± 0.6 | 16 | long-lasting hypothermia | −1.8 ± 0.2 | 55 ± 3 | temperature drop (Sprague-Dawley rats): more than 2 °C; fold increase in binding to NTS1 (hNTS1; compared to 13 (addition of reduced amine bond)): 65 fold
9 | H-KKPKIL-OH [Compound 9, H-Lys-Lys-Pro-Lys-Ile-Leu-OH] | – | – | 25 | did not induce hypothermia; also recorded: did not cause drop in body temperature | 0.32 ± 0.2 | – | fold decrease in NTS2 binding affinity (hNTS2): > 110 fold; Ki (hNTS2; [2]): 310 ± 100 nM; fold decrease in NTS1 binding affinity (hNTS1): more than 5,000 fold
10 | CC[C@H](C)[C@H](NC(=O)[C@H](Cc1ccc(O)cc1)NC(=O)C1C[Si](C)(C)CN1C(=O)[C@H](CCCCN)NC[C@@H](N)CCCCN)C(=O)N[C@@H](CC(C)C)C(=O)O (stereo partly drawn) [Compound 6, H-Lysψ[CH2NH]Lys-Sip-Tyr-Ile-Leu-OH] | 22 ± 2 | 130 ± 30 | 2.3 | slight decrease in core body temperature; also recorded: hypothermic response | −2.2 ± 0.3 | 300 ± 50 | fold decrease in NTS2 binding affinity (hNTS2): ~50 fold; fold decrease in NTS1 binding affinity (hNTS1): 200 fold
11 | CC[C@H](C)[C@H](NC(=O)[C@H](CCCCN)NC(=O)[C@@H]1CCCN1C(=O)[C@H](CCCCN)NC(=O)[C@@H](N)CCCCN)C(=O)N[C@@H](C[Si](C)(C)C)C(=O)O [Compound 11, H-Lys-Lys-Pro-Lys-Ile-TMSAla-OH] (H-KKPKI[Ala(SiMe3)]-OH) | – | 76 ± 20 | 9.3 | did not induce hypothermia; also recorded: did not cause drop in body temperature | 0.04 ± 0.2 | 710 ± 100 | fold increase in affinity toward NTS2 (hNTS2; compared to 9): 4 fold; fold increase in affinity toward NTS1 (hNTS1; compared to 9): 10 fold
12 | CC[C@H](C)[C@H](NC(=O)[C@H](Cc1ccc(O)cc1)NC(=O)C1C[Si](C)(C)CN1C(=O)[C@H](CCCCN)NC(=O)[C@@H](N)CCCCN)C(=O)N[C@@H](CC(C)C)C(=O)O (stereo partly drawn) [Compound 5, H-Lys-Lys-Sip-Tyr-Ile-Leu-OH] (H-KK[X2]YIL-OH) | – | – | – | not effective in reducing the body temperature; also recorded: not effective to induce drop in body temperature | −0.07 ± 0.2 | – | –
13 | CC[C@H](C)[C@H](NC(=O)[C@@H](Cc1c[nH]c2ccccc12)NC(=O)[C@@H]1CCCN1C(=O)[C@H](CCCCN)NC(=O)[C@@H](N)CCCCN)C(=O)N[C@@H](C[Si](C)(C)C)C(=O)O [Compound 13, H-Lys-Lys-Pro-D-Trp-Ile-TMSAla-OH] (H-KKP[dW]I[Ala(SiMe3)]-OH) | – | 8.5 ± 2 | 423 | – | – | – | selectivity toward NTS2 (hNTS2; NTS2 over NTS1, text): > 420 fold; Plasma stability (Half-life) ([1]; short incubation times): 0.167 ± 0.033 h; half-life at 0.156 mM ([1]; plasma, short incubation times): < 0.167 h
